Test results reported in ChEMBL document CHEMBL5247640 (J Med Chem, 2023).
Calls of active or inactive are those of the source. The calls are words filed in the database; no cut-off is given here.

Columns and labels:
Mus musculus [1] = experiment: Anti-NASH activity in high-fat diet and CCl4-induced nonalcoholic steatohepatitis C57BL/6J mouse assessed as reduction in col-1A1 gene expression in liver at 3 to 10 mg/kg, po once daily and measured after 48 hrs […]; type: functional, organism-based; conditions: dose 3-10 mg/kg
[2] = target: T1, Thyroid hormone receptor alpha (Homo sapiens, UniProt P10827); experiment: Agonist activity at human THRalpha transfected in Huh7 cells co-transfected with luciferase reporter plasmid assessed as […] luciferase activity incubated for 16 hrs by Steady-Glo luciferase assay; type: cell-based, Huh-7
T1 sequence (P10827 whole entry): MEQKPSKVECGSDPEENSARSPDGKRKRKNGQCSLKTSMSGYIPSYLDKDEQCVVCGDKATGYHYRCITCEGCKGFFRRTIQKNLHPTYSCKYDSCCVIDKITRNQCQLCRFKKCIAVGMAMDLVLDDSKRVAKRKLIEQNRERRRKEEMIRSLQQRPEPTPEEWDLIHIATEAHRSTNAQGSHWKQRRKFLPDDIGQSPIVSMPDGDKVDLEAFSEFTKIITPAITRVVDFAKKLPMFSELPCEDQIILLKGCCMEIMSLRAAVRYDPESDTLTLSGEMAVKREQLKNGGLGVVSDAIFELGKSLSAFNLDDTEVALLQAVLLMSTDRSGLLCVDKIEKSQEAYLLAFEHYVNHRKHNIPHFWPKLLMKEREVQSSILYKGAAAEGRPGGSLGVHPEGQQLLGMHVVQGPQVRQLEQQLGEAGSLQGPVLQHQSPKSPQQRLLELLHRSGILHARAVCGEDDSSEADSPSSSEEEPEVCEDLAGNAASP

[3] = target: T2, Thyroid hormone receptor beta (Homo sapiens, UniProt P10828); experiment: Agonist activity at human THRbeta transfected in Huh7 cells co-transfected with luciferase reporter plasmid assessed as […] luciferase activity incubated for 16 hrs by Steady-Glo luciferase assay; type: cell-based, Huh-7
T2 sequence (P10828 whole entry): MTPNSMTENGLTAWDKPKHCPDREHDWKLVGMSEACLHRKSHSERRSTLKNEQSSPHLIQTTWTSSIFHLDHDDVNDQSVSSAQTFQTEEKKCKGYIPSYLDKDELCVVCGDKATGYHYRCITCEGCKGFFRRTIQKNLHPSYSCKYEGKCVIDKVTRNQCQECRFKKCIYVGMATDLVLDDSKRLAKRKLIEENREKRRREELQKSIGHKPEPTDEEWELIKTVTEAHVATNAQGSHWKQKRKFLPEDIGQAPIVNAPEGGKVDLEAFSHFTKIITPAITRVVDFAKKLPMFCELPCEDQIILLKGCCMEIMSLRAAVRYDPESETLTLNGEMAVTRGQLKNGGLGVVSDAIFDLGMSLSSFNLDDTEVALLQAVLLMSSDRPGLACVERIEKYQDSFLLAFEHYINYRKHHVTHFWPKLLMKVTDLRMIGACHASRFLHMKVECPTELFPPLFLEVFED

[4] = Half life in ICR mouse at 30 mg/kg, po measured after 24 hrs by LC-MS/MS analysis; type: ADME, organism-based; conditions: in vivo
[5] = Tmax in ICR mouse at 30 mg/kg, po measured after 24 hrs by LC-MS/MS analysis; type: ADME, organism-based; conditions: in vivo
[6] = Cmax in ICR mouse at 30 mg/kg, po measured after 24 hrs by LC-MS/MS analysis; type: ADME, organism-based; parameters: time 24 hrs, dose 30 mg/kg, route po; conditions: in vivo
[7] = AUClast in ICR mouse at 30 mg/kg, po measured after 24 hrs by LC-MS/MS analysis; type: ADME, organism-based; parameters: dose 30 mg/kg, time 24 hrs, route po; conditions: in vivo
[8] = Metabolic stability in human liver microsomes assessed as half life; type: ADME, Microsome
[9] = Metabolic stability in rat liver microsomes assessed as half life; type: ADME, Microsome
[10] = Metabolic stability in mouse liver microsomes assessed as half life; type: ADME, Microsome
[11] = Metabolic stability in dog liver microsomes assessed as half life; type: ADME, Canis lupus familiaris, Microsome
[12] = Metabolic stability in monkey liver microsomes assessed as half life; type: ADME, Macaca mulatta, Microsome; conditions: rhesus monkey
[13] = Metabolic stability in human liver microsomes assessed as intrinsic clearance; type: ADME, Microsome
[14] = Metabolic stability in rat liver microsomes assessed as intrinsic clearance; type: ADME, Microsome
[15] = Metabolic stability in mouse liver microsomes assessed as intrinsic clearance; type: ADME, Microsome
[16] = Metabolic stability in monkey liver microsomes assessed as intrinsic clearance; type: ADME, Macaca mulatta, Microsome; conditions: rhesus monkey
[17] = Half life in ICR mouse serum at 10 mg/kg, po measured after 24 hrs by LC-MS/MS analysis; type: ADME, organism-based
[18] = Tmax in ICR mouse serum at 10 mg/kg, po measured after 24 hrs by LC-MS/MS analysis; type: ADME, organism-based
[19] = Tmax in ICR mouse liver at 10 mg/kg, po measured after 24 hrs by LC-MS/MS analysis; type: ADME, organism-based
[20] = Cmax in ICR mouse serum at 10 mg/kg, po measured after 24 hrs by LC-MS/MS analysis; type: ADME, organism-based; parameters: dose 10 mg/kg, time 24 hrs, route po
[21] = Cmax in ICR mouse liver at 10 mg/kg, po measured after 24 hrs by LC-MS/MS analysis; type: ADME, organism-based; parameters: dose 10 mg/kg, time 24 hrs, route po
[22] = AUClast in ICR mouse serum at 10 mg/kg, po measured after 24 hrs by LC-MS/MS analysis; type: ADME, organism-based; parameters: time 24 hrs, dose 10 mg/kg, route po
[23] = Toxicity in ICR mouse assessed as decrease in serum total cholesterol level at 30 mg/kg, po administered as single dose measured after 24 hrs by automated biochemical analyzer; type: organism-based; parameters: scale not given: the % may be the effect or the level left; conditions: in vivo
[24] = Toxicity in ICR mouse assessed as decrease in serum total cholesterol level at 3 mg/kg, po administered as single dose measured after 24 hrs by automated biochemical analyzer; type: organism-based; parameters: scale not given: the % may be the effect or the level left; conditions: in vivo
[25] = Toxicity in ICR mouse assessed as decrease in serum total cholesterol level at 10 mg/kg, po administered as single dose measured after 24 hrs by automated biochemical analyzer; type: organism-based; parameters: scale not given: the % may be the effect or the level left; conditions: in vivo
[26] = Toxicity in ICR mouse assessed as decrease in serum total LDL-cholesterol level at 3 mg/kg, po administered as single dose measured after 24 hrs by automated biochemical analyzer; type: organism-based; parameters: scale not given: the % may be the effect or the level left; conditions: in vivo
[27] = Toxicity in ICR mouse assessed as decrease in serum total LDL-cholesterol level at 10 mg/kg, po administered as single dose measured after 24 hrs by automated biochemical analyzer; type: organism-based; parameters: scale not given: the % may be the effect or the level left; conditions: in vivo
[28] = Hepatotoxicity in ICR mouse assessed as upregulation of Dio1 mRNA expression in liver by measuring fold change at 3 to 10 mg/kg, po administered as single dose by qRT-PCR analysis; type: toxicity, organism-based; conditions: in vivo, dose 3-10 mg/kg
[29] = Hepatotoxicity in ICR mouse assessed as upregulation of THRSP mRNA expression in liver by measuring fold change at 3 to 10 mg/kg, po administered as single dose by qRT-PCR analysis; type: toxicity, organism-based; conditions: in vivo, dose 3-10 mg/kg
[30] = Hepatotoxicity in ICR mouse assessed as upregulation of Me1 mRNA expression in liver by measuring fold change at 3 to 10 mg/kg, po administered as single dose by qRT-PCR analysis; type: toxicity, organism-based; conditions: in vivo, dose 3-10 mg/kg
Mus musculus [31] = experiment: Anti-NASH activity in high-fat diet and CCl4-induced nonalcoholic steatohepatitis C57BL/6J mouse assessed as decrease in serum total cholesterol level administered orally once daily for 6 weeks; type: functional, organism-based; conditions: dose 3-10 mg/kg, route po
Mus musculus [32] = experiment: Anti-NASH activity in high-fat diet and CCl4-induced nonalcoholic steatohepatitis C57BL/6J mouse assessed as decrease in serum LDL-cholesterol level administered orally once daily for 6 weeks; type: functional, organism-based; conditions: dose 3-10 mg/kg, route po
[33] = Cardiotoxicity in ICR mouse assessed as changes in Myh6 mRNA expression in heart at 3 to 10 mg/kg, po administered as single dose by qRT-PCR analysis; type: toxicity, organism-based; conditions: in vivo, dose 3-10 mg/kg
[34] = Cardiotoxicity in ICR mouse assessed as changes in Myh7 mRNA expression in heart at 3 to 10 mg/kg, po administered as single dose by qRT-PCR analysis; type: toxicity, organism-based; conditions: in vivo, dose 3-10 mg/kg
[35] = Cardiotoxicity in ICR mouse assessed as changes in Myh6/Myh7 ratio in heart at 3 to 10 mg/kg, po administered as single dose by qRT-PCR analysis; type: toxicity, organism-based; conditions: in vivo, dose 3-10 mg/kg
Mus musculus [36] = experiment: Anti-NASH activity in high-fat diet and CCl4-induced nonalcoholic steatohepatitis C57BL/6J mouse assessed as decrease in liver steatosis at 3 to 10 mg/kg, po once daily and measured after 48 hrs by hematoxylin and eosin staining based microscopic analysis; type: functional, organism-based; conditions: dose 3-10 mg/kg
Mus musculus [37] = experiment: Anti-NASH activity in high-fat diet and CCl4-induced nonalcoholic steatohepatitis C57BL/6J mouse assessed as decrease in inflammation score at 3 to 10 mg/kg, po once daily and measured after 48 hrs by hematoxylin and eosin staining based microscopic analysis; type: functional, organism-based; conditions: dose 3-10 mg/kg
Mus musculus [38] = experiment: Anti-NASH activity in high-fat diet and CCl4-induced nonalcoholic steatohepatitis C57BL/6J mouse assessed as decrease in NAFLD activity score at 3 to 10 mg/kg, po once daily and measured after 48 hrs by hematoxylin and eosin staining based microscopic analysis; type: functional, organism-based; conditions: dose 3-10 mg/kg
Mus musculus [39] = experiment: Anti-NASH activity in high-fat diet and CCl4-induced nonalcoholic steatohepatitis C57BL/6J mouse assessed as reduction in liver fibrosis area at 3 to 10 mg/kg, po once daily and measured after 48 hrs by sirius red staining based assay; type: functional, organism-based; conditions: dose 3-10 mg/kg
[40] = AUClast in ICR mouse liver at 10 mg/kg, po measured after 24 hrs by LC-MS/MS analysis; type: ADME, organism-based; conditions: in vivo
[41] = Toxicity in ICR mouse assessed as decrease in serum total cholesterol level at 1 mg/kg, po administered as single dose measured after 24 hrs by automated biochemical analyzer; type: organism-based; parameters: scale not given: the % may be the effect or the level left; conditions: in vivo
[42] = Toxicity in ICR mouse assessed as decrease in serum total LDL-cholesterol level at 1 mg/kg, po administered as single dose measured after 24 hrs by automated biochemical analyzer; type: organism-based; parameters: scale not given: the % may be the effect or the level left; conditions: in vivo
[43] = Cardiotoxicity in ICR mouse assessed as upregulation of Myh6 mRNA expression in heart at 1 mg/kg, po administered as single dose by qRT-PCR analysis; type: toxicity, organism-based; conditions: in vivo

Row | Structure (SMILES) | half-life [4] | Tmax [5] | Cmax [6] | AUC(0-t) at 24 h [7] | half-life [8] | half-life [9] | half-life [10] | CLH [13] | CLH [14] | CLH [15] | half-life [17] | Tmax [18] | Tmax [19] | Cmax [20] | Cmax [21] | AUC(0-t) at 24 h [22] | Activity [23] | Activity [24] | Activity [25] | Activity [26] | further results
1 | CC(C)n1c(=O)ccc2c1ccn2-c1c(Cl)cc(-n2nc(C#N)c(=O)[nH]c2=O)cc1Cl | 8.7 h | 8 h | 2830 ng/mL | 37500 ng·h/mL | 2.98 h | 3.48 h | 4.55 h | 11.7 mL/min/g | 10 mL/min/g | 7.7 mL/min/g | 4.4 h | 6 h | 4 h | 1200 ng/mL | 99000 ng/g | 12100 ng·h/mL | 33% | 30.7% | 33.7% | 53.6% | Activity (Mus musculus [1]): Active; EC50 [2]: 220 nM; EC50 [3]: 30 nM; half-life [11]: 0.25 h; half-life [12]: 4.38 h; CLH [16]: 8 mL/min/g; Activity [27]: 62.1%; fold change (FC) [28]: 19; fold change (FC) [29]: 16; fold change (FC) [30]: 3; Activity (Mus musculus [31]): Dose-Dependent Effect; Activity (Mus musculus [32]): Dose-Dependent Effect; Activity [33]: Non-Toxic; Activity [34]: Non-Toxic; Activity [35]: Non-Toxic; Activity (Mus musculus [36]): Active; Activity (Mus musculus [37]): Active; Activity (Mus musculus [38]): Active; Activity (Mus musculus [39]): Active
2 | CC(C)c1cc(Oc2c(Cl)cc(-n3nc(C#N)c(=O)[nH]c3=O)cc2Cl)n[nH]c1=O [RESMETIROM] | 16.7 h | 6 h | 12100 ng/mL | 168000 ng·h/mL | 1.32 h | 4.08 h | 3.88 h | 26.5 mL/min/g | 8.6 mL/min/g | 9 mL/min/g | 9.1 h | 2.7 h | 4 h | 5710 ng/mL | 24300 ng/g | 57100 ng·h/mL | 20.4% | 27.2% | 36.9% | 39.3% | AUClast [40]: 349501 ng·h/g; Activity [27]: 39.8%; fold change (FC) [28]: 12; fold change (FC) [29]: 10; fold change (FC) [30]: 1.8; Activity [33]: Non-Toxic; Activity [34]: Non-Toxic; Activity [35]: Non-Toxic
3 | N[C@@H](Cc1cc(I)c(Oc2ccc(O)c(I)c2)c(I)c1)C(=O)O [LIOTHYRONINE] |  |  |  |  |  |  |  |  |  |  |  |  |  |  |  |  |  |  |  |  | Activity [41]: 44%; Activity [42]: 61.9%; Activity [43]: Toxic
